{"source": "patent US11242337B2", "about": "“Compounds useful for treating gastrointestinal tract disorders” (Ardelyx, Inc., priority 2017, dated 2022)", "key": {"[1]": {"target": "T1, NHE3 (Homo sapiens, UniProt P48764)", "T1 construct": "expressed in transfected cells", "T1 sequence (P48764 26-834)": "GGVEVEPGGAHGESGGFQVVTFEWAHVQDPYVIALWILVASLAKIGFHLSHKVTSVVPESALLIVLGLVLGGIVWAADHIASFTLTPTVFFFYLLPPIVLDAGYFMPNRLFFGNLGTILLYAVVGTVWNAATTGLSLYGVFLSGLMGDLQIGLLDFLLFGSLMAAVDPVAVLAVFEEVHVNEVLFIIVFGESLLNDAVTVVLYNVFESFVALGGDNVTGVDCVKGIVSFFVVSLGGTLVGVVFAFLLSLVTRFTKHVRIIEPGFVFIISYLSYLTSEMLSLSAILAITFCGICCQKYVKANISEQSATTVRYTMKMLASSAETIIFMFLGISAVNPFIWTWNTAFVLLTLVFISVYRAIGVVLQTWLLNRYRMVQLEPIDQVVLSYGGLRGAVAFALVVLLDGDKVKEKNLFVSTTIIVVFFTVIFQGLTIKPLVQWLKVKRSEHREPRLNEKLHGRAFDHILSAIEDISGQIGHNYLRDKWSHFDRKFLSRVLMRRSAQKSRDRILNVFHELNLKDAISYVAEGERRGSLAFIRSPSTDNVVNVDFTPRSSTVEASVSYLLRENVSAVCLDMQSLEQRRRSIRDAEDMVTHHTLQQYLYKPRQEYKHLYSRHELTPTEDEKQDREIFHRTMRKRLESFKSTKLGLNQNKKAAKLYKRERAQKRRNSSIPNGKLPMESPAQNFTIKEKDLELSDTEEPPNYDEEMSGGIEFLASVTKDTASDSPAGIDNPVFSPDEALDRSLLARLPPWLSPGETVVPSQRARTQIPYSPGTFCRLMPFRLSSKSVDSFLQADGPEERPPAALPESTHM", "T1 sequence (Q99653 2-195 partner limits assumed)": "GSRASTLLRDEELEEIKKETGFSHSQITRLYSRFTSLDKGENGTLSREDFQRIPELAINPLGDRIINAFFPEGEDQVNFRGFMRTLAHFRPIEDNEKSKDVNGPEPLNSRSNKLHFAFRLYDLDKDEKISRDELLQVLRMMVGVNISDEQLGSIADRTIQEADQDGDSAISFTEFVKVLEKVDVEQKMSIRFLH", "test": "Cell-based assay of NHE-3 activity (persistent inhibition), human", "conditions": "human Persistence, 60 min incubation then washout", "outline": "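Persistent inhibition: compound (0-30 μM, 60 min, RT, NaCl-HEPES pH 7.4) removed before assay. Human NHE3/NHERF2 PS120 cells were then BCECF-loaded during NH4Cl pulse (30 min, 37 °C), acidified in Na+-free buffer, and Na+ added 10 min after washout; antiport measured as initial fluorescence-ratio change per minute.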"}, "[2]": {"target": "T1, NHE3", "test": "Cell-based assay of NHE-3 activity (pre-incubation inhibition), human", "conditions": "human Preincubation; for pIC50: 0-30 μM test compound", "outline": "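Activity read as initial rate of BCECF fluorescence ratio change per minute (ex 439/505, em 538 nm) following NH4Cl prepulse acid loading. Compound (0–30 μM) present during 10 min Na+-free acidification at room temperature; cells were PS120 fibroblasts stably co-expressing human NHE3 and NHERF2.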"}}, "data": [{"molecule": "Cc1cc(S(=O)(=O)NCCOCCOCCNC(=O)NCCCCNC(=O)NCCOCCOCCNS(=O)(=O)c2ccc(O[C@H]3c4cc(Cl)cc(C)c4C[C@@H]3N(C)C)c(C)c2)ccc1O[C@H]1c2cc(Cl)cc(C)c2C[C@@H]1N(C)C", "note": "[Example 17, 3-[2-(2-[2-[(4-[[(1S,2S)-6-Chloro-2-(dimethylamino)-4-methyl-2,3-dihydro-1H-inden-1-yl]oxy]-3-methylbenzene)sulfonamido]ethoxy]ethoxy)ethyl]-1-[4-([[2-(2-[2-[(4-[[(1S,2S)-6-chloro-2-(dimethylamino)-4-methyl-2,3-dihydro-1H-inden-1-yl]oxy]-3-methylbenzene)sulfonamido]ethoxy]ethoxy)ethyl]carbamoyl]amino)butyl]urea]", "values": [{"measurement": "% inhibition", "setting": "[1]", "value": "C (>70%)"}, {"measurement": "pIC50", "setting": "[1]", "value": "C (NHE3 pIC50 > 7)"}, {"measurement": "% inhibition", "setting": "[2]", "value": "C (>70%)"}, {"measurement": "pIC50", "setting": "[2]", "value": "C (NHE3 pIC50 > 7)"}]}, {"molecule": "N#Cc1cc(Cl)cc2c1C[C@H](N1CCNCC1)[C@H]2Oc1ccc(S(=O)(=O)N[C@@H]2CCN(CCOCCNC(=O)NCCCCNC(=O)NCCOCCN3CC[C@@H](NS(=O)(=O)c4ccc(O[C@H]5c6cc(Cl)cc(C#N)c6C[C@@H]5N5CCNCC5)c(F)c4)C3)C2)cc1F", "note": "[Example 109, 4-([(1S,2S)-6-Chloro-4-cyano-2-(piperazin-1-yl)-2,3-dihydro-1H-inden-1-yl]oxy)-N—[(R)-1-(20-[(R)-3-[(4-([(1S,2S)-6-chloro-4-cyano-2-(piperazin-1-yl)-2,3-dihydro-1H-inden-1-yl]oxy)-3-fluorophenyl)sulfonamide)pyrrolidin-1-yl]-7,14-dioxo-3,18-dioxa-6,8,13,15-tetraazaicosyl)pyrrolidin-3-yl]-3-fluorobenzenesulfonamide; tetra(trifluoroacetate)]", "values": [{"measurement": "% inhibition", "setting": "[1]", "value": "C (>70%)"}, {"measurement": "pIC50", "setting": "[1]", "value": "C (NHE3 pIC50 > 7)"}, {"measurement": "% inhibition", "setting": "[2]", "value": "C (>70%)"}, {"measurement": "pIC50", "setting": "[2]", "value": "C (NHE3 pIC50 > 7)"}]}, {"molecule": "CN(C)[C@H]1Cc2c(Cl)cc(Cl)cc2[C@@H]1Oc1ccc(S(=O)(=O)NCCOCCOCCNC(=O)NCCCCNC(=O)NCCOCCOCCNS(=O)(=O)c2ccc(O[C@H]3c4cc(Cl)cc(Cl)c4C[C@@H]3N(C)C)c(F)c2)cc1F", "note": "[Example 23, 3-[2-(2-[2-[(4-[[(1S,2S)-4,6-Dichloro-2-(dimethylamino)-2,3-dihydro-1H-inden-1-yl]oxy]-3-fluorobenzene)sulfonamido]ethoxy]ethoxy)ethyl]-1-[4-([[2-(2-[2-[(4-[[(1S,2S)-4,6-dichloro-2-(dimethylamino)-2,3-dihydro-1H-inden-1-yl]oxy]-3-fluorobenzene)sulfonamido]ethoxy]ethoxy)ethyl]carbamoyl]amino)butyl]urea; bis(trifluoroacetic acid)]", "values": [{"measurement": "% inhibition", "setting": "[1]", "value": "C (>70%)"}, {"measurement": "pIC50", "setting": "[1]", "value": "C (NHE3 pIC50 > 7)"}, {"measurement": "% inhibition", "setting": "[2]", "value": "C (>70%)"}, {"measurement": "pIC50", "setting": "[2]", "value": "C (NHE3 pIC50 > 7)"}]}, {"molecule": "Cc1cc(S(=O)(=O)NCCOCCOCCNC(=O)NCCCCNC(=O)NCCOCCOCCNS(=O)(=O)c2ccc(O[C@H]3c4cc(Cl)cc(C#N)c4C[C@@H]3N3CCNCC3)c(C)c2)ccc1O[C@H]1c2cc(Cl)cc(C#N)c2C[C@@H]1N1CCNCC1", "note": "[Example 42, 3-[2-(2-[2-[(4-[[(1S,2S)-6-Chloro-4-cyano-2-(piperazin-1-yl)-2,3-dihydro-1H-inden-1-yl]oxy]-3-methylbenzene)sulfonamido]ethoxy]ethoxy)ethyl]-1-[4-([[2-(2-[2-[(4-[[(1S,2S)-6-chloro-4-cyano-2-(piperazin-1-yl)-2,3-dihydro-1H-inden-1-yl]oxy]-3-methylbenzene)sulfonamido]ethoxy]ethoxy)ethyl]carbamoyl]amino)butyl]urea; bis(trifluoroacetic acid)]", "values": [{"measurement": "% inhibition", "setting": "[1]", "value": "C (>70%)"}, {"measurement": "pIC50", "setting": "[1]", "value": "C (NHE3 pIC50 > 7)"}, {"measurement": "% inhibition", "setting": "[2]", "value": "C (>70%)"}, {"measurement": "pIC50", "setting": "[2]", "value": "C (NHE3 pIC50 > 7)"}]}, {"molecule": "Cc1cc(S(=O)(=O)NCCOCCOCCNC(=O)NCCCCNC(=O)NCCOCCOCCNS(=O)(=O)c2ccc(O[C@H]3c4cc(Cl)cc(Cl)c4C[C@@H]3N3CCNCC3)c(C)c2)ccc1O[C@H]1c2cc(Cl)cc(Cl)c2C[C@@H]1N1CCNCC1", "note": "[Example 32, 3-[2-(2-[2-[(4-[[(1S,2S)-4,6-Dichloro-2-(piperazin-1-yl)-2,3-dihydro-1H-inden-1-yl]oxy]-3-methylbenzene)sulfonamido]ethoxy]ethoxy)ethyl]-1-[4-([[2-(2-[2-[(4-[[(1S,2S)-4,6-dichloro-2-(piperazin-1-yl)-2,3-dihydro-1H-inden-1-yl]oxy]-3-methylbenzene)sulfonamido]ethoxy]ethoxy)ethyl]carbamoyl]amino)butyl]urea; bis(trifluoroacetic acid)]", "values": [{"measurement": "% inhibition", "setting": "[1]", "value": "C (>70%)"}, {"measurement": "pIC50", "setting": "[1]", "value": "C (NHE3 pIC50 > 7)"}, {"measurement": "% inhibition", "setting": "[2]", "value": "C (>70%)"}, {"measurement": "pIC50", "setting": "[2]", "value": "C (NHE3 pIC50 > 7)"}]}, {"molecule": "N#Cc1cc(Cl)cc2c1C[C@H](N1CCNCC1)[C@H]2Oc1ccc(S(=O)(=O)N[C@H]2CCN(CCOCCNC(=O)NCCCCNC(=O)NCCOCCN3CC[C@H](NS(=O)(=O)c4ccc(O[C@H]5c6cc(Cl)cc(C#N)c6C[C@@H]5N5CCNCC5)c(F)c4)C3)C2)cc1F", "note": "[Example 110, 4-([(1S,2S)-6-Chloro-4-cyano-2-(piperazin-1-yl)-2,3-dihydro-1H-inden-1-yl]oxy)-N—[(S)-1-(20-[(S)-3-[(4-([(1S,2S)-6-chloro-4-cyano-2-(piperazin-1-yl)-2,3-dihydro-1H-inden-1-yl]oxy)-3-fluorophenyl)sulfonamide)pyrrolidin-1-yl]-7,14-dioxo-3,18-dioxa-6,8,13,15-tetraazaicosyl)pyrrolidin-3-yl]-3-fluorobenzenesulfonamide; tetra(trifluoroacetate)]", "values": [{"measurement": "% inhibition", "setting": "[1]", "value": "C (>70%)"}, {"measurement": "pIC50", "setting": "[1]", "value": "C (NHE3 pIC50 > 7)"}, {"measurement": "% inhibition", "setting": "[2]", "value": "C (>70%)"}, {"measurement": "pIC50", "setting": "[2]", "value": "C (NHE3 pIC50 > 7)"}]}, {"molecule": "C[C@@H]1CN([C@H]2Cc3c(C#N)cc(Cl)cc3[C@@H]2Oc2ccc(S(=O)(=O)N[C@@H]3CCN(CCOCCNC(=O)NCCCCNC(=O)NCCOCCN4CC[C@@H](NS(=O)(=O)c5ccc(O[C@H]6c7cc(Cl)cc(C#N)c7C[C@@H]6N6CCN[C@H](C)C6)cc5)C4)C3)cc2)CCN1", "note": "[Example 133, 4-([(1S,2S)-6-Chloro-4-cyano-2-[(R)-3-methylpiperazin-1-yl]-2,3-dihydro-1H-inden-1-yl]oxy)-N—[(R)-1-(20-[(R)-3-([4-([(1S,2S)-6-chloro-4-cyano-2-[(R)-3-methylpiperazin-1-yl]-2,3-dihydro-1H-inden-1-yl]oxy)phenyl]sulfonamido)pyrrolidin-1-yl]-7,14-dioxo-3,18-dioxa-6,8,13,15-tetraazaicosyl)pyrrolidin-3-yl]benzenesulfonamide; bis(trifluoroacetic acid)]", "values": [{"measurement": "% inhibition", "setting": "[1]", "value": "C (>70%)"}, {"measurement": "pIC50", "setting": "[1]", "value": "C (NHE3 pIC50 > 7)"}, {"measurement": "% inhibition", "setting": "[2]", "value": "C (>70%)"}, {"measurement": "pIC50", "setting": "[2]", "value": "C (NHE3 pIC50 > 7)"}]}, {"molecule": "Cc1cc(S(=O)(=O)NCCOCCOCCNC(=O)NCCCCNC(=O)NCCOCCOCCNS(=O)(=O)c2ccc(O[C@H]3c4cc(Cl)cc(Cl)c4C[C@@H]3N3CCC[C@@H](N(C)C)C3)c(C)c2)ccc1O[C@H]1c2cc(Cl)cc(Cl)c2C[C@@H]1N1CCC[C@@H](N(C)C)C1", "note": "[Example 26, 3-[2-(2-[2-[(4-[[(1S,2S)-4,6-Dichloro-2-[(3R)-3-(dimethylamino)piperidin-1-yl]-2,3-dihydro-1H-inden-1-yl]oxy]-3-methylbenzene)sulfonamido]ethoxy]ethoxy)ethyl]-1-[4-([[2-(2-[2-[4-[[(1S,2S)-4,6-dichloro-2-[(3R)-3-(dimethylamino)piperidin-1-yl]-2,3-dihydro-1H-inden-1-yl]oxy]-3-methylbenzenesulfonamido]ethoxy]ethoxy)ethyl]carbamoyl]amino)butyl]urea; bis(trifluoroacetic acid)]", "values": [{"measurement": "% inhibition", "setting": "[1]", "value": "C (>70%)"}, {"measurement": "% inhibition", "setting": "[2]", "value": "C (>70%)"}]}, {"molecule": "O=C(NCCCCNC(=O)NCCOCCOCCNS(=O)(=O)c1ccc(O[C@H]2c3cc(Cl)cc(Cl)c3C[C@@H]2N2CCNCC2)cc1)NCCOCCOCCNS(=O)(=O)c1ccc(O[C@H]2c3cc(Cl)cc(Cl)c3C[C@@H]2N2CCNCC2)cc1", "note": "[Example 31, 3-[2-(2-[2-[(4-[[(1S,2S)-4,6-Dichloro-2-(piperazin-1-yl)-2,3-dihydro-1H-inden-1-yl]oxy]benzene)sulfonamido]ethoxy]ethoxy)ethyl]-1-[4-([[2-(2-[2-[(4-[[(1S,2S)-4,6-dichloro-2-(piperazin-1-yl)-2,3-dihydro-1H-inden-1-yl]oxy]benzene)sulfonamido]ethoxy]ethoxy)ethyl]carbamoyl]amino)butyl]urea; bis(trifluoroacetic acid)]", "values": [{"measurement": "% inhibition", "setting": "[1]", "value": "C (>70%)"}, {"measurement": "% inhibition", "setting": "[2]", "value": "C (>70%)"}]}]}
